Experimental findings from ChEMBL document CHEMBL1127062 (J Med Chem, 1993) are described below.

Each structure is given as a SMILES string. Some results are limits rather than exact numbers.

Ryanodine receptor 1, sequence (P11716 whole entry): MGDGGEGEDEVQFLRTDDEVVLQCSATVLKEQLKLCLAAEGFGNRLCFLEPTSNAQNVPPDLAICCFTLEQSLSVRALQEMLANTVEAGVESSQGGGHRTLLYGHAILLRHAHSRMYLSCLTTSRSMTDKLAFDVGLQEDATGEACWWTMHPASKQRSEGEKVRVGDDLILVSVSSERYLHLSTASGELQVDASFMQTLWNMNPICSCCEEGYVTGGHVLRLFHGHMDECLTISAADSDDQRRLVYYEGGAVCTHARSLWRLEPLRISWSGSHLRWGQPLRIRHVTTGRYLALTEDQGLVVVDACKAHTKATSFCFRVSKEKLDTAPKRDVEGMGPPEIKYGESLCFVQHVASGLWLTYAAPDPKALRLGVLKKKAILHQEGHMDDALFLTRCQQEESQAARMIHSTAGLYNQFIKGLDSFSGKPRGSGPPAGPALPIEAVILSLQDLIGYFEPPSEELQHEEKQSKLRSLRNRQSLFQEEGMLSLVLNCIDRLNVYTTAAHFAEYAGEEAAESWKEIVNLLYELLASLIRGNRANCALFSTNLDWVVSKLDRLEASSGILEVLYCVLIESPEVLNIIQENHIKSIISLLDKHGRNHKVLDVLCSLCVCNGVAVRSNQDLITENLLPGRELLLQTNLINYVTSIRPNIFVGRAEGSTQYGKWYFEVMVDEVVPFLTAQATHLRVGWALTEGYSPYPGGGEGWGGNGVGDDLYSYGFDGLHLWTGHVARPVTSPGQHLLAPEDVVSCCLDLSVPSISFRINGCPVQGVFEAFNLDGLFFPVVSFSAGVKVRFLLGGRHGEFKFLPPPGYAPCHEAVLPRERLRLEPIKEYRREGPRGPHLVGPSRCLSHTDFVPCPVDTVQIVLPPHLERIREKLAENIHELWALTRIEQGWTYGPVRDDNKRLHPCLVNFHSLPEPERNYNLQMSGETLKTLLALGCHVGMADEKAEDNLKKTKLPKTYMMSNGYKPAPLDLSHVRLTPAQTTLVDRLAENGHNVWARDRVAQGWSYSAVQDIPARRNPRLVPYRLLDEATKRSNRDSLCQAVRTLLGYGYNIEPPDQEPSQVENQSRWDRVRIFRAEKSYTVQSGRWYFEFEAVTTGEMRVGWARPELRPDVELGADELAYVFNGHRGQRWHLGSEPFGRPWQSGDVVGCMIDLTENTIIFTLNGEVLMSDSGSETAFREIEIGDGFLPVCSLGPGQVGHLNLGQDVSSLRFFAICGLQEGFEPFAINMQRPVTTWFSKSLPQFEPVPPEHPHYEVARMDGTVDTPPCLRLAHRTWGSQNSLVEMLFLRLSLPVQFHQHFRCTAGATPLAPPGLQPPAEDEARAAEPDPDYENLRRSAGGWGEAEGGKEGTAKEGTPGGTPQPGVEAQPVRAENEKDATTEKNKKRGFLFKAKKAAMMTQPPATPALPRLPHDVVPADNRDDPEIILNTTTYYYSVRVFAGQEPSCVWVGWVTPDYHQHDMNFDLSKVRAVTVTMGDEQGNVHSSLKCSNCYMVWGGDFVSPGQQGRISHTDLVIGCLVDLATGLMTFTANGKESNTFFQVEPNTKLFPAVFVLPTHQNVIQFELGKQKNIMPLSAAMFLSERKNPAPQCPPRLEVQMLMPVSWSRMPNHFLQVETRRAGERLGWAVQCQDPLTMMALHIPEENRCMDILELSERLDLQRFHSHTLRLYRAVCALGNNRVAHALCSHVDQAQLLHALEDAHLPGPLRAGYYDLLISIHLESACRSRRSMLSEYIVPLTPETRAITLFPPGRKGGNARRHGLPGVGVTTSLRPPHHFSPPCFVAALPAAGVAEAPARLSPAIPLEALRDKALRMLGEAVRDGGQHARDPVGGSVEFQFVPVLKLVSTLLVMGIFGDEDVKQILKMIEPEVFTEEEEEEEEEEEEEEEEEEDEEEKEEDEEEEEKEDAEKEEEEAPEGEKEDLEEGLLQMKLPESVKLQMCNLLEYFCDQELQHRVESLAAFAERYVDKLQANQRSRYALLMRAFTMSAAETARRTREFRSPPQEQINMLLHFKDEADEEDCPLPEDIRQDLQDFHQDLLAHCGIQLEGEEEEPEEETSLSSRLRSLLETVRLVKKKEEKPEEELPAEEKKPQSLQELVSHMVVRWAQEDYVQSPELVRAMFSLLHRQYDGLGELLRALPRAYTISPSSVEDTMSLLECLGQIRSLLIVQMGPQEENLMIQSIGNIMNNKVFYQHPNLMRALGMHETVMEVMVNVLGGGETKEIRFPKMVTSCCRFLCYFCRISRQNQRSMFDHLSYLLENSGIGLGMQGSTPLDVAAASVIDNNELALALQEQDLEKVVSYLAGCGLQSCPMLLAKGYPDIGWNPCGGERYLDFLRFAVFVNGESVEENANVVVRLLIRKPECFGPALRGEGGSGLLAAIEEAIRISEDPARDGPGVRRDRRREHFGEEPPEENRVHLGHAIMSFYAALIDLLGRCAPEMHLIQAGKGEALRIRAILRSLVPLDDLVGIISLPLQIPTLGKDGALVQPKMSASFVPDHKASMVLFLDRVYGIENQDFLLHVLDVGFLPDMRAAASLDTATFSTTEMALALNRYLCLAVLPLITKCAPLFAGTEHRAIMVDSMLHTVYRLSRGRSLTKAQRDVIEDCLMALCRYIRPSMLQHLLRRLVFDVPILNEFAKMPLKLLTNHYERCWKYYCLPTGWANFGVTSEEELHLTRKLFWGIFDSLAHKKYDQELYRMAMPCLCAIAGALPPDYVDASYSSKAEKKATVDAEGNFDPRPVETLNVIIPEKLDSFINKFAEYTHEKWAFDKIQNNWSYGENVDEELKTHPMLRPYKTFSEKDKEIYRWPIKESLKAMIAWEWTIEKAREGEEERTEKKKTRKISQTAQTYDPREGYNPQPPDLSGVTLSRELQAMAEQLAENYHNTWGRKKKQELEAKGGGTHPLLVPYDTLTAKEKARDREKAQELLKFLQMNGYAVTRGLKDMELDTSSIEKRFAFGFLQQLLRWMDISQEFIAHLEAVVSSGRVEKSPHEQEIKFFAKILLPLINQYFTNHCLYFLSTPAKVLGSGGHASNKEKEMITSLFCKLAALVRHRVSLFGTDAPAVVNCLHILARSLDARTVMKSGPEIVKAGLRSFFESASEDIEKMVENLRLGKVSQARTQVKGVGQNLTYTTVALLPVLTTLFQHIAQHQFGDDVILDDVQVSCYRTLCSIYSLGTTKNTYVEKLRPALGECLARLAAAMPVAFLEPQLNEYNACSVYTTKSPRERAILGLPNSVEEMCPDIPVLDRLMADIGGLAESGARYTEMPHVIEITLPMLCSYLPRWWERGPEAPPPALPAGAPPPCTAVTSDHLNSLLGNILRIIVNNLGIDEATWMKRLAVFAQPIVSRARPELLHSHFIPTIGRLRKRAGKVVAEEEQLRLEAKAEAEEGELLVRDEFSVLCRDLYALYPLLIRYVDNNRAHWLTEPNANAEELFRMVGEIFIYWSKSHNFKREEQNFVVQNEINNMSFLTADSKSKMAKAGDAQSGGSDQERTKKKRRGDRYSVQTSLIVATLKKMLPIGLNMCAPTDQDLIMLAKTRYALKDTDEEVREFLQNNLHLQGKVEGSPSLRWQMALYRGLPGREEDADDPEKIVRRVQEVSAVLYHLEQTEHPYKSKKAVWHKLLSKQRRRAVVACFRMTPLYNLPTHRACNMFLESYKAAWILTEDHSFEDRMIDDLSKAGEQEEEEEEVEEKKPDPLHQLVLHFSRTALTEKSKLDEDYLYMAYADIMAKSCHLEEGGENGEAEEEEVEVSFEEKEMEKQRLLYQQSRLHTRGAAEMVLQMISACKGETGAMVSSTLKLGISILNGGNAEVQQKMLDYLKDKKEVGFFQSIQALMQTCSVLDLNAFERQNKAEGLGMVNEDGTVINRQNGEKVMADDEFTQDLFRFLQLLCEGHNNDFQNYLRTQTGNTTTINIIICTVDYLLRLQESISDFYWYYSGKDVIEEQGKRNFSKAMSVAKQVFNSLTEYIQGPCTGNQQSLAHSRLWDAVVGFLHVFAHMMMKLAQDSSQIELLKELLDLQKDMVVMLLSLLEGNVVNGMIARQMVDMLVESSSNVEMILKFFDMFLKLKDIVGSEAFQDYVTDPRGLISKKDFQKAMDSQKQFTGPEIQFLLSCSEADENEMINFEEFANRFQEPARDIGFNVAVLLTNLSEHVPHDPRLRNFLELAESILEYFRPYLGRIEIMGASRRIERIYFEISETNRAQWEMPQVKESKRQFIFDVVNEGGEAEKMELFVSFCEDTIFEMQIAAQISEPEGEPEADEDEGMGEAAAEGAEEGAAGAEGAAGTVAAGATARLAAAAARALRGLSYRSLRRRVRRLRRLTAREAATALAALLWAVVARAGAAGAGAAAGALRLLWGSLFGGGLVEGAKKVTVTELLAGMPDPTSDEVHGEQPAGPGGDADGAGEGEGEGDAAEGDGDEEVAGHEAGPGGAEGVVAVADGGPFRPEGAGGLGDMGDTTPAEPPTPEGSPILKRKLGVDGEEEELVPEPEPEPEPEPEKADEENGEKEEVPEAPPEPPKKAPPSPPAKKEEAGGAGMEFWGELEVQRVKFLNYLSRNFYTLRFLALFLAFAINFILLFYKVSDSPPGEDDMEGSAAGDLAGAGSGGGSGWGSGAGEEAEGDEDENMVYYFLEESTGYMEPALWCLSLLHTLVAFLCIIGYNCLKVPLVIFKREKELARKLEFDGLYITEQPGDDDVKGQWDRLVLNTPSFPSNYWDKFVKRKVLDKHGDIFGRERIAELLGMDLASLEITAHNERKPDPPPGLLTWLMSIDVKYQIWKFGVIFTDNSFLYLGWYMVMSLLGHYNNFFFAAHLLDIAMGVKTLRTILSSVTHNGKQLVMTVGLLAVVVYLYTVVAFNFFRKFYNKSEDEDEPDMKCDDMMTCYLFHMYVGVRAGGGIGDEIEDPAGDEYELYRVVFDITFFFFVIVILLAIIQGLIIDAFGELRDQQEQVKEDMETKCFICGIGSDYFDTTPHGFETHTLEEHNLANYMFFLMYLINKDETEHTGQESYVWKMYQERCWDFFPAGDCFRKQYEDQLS

This test has as its target Ryanodine receptor 1 (Oryctolagus cuniculus, UniProt P11716). In words: Affinity for sarcoplasmic reticular calcium release channel (SR CRC) of rabbit skeletal membrane vesicles.
By IC50 is commonly meant the concentration at which inhibition is half-maximal. In the case of `CC1CCC2(O)C3(OC4(O)C[C@]2(C)C2(O)[C@H](OC(=O)c5ccc[nH]5)C(O)(C(C)C)C4(C)C32O)[C@@H]1OC(=O)CCC(=O)O` (some centres not stated), the IC50 was over 1000 nM.
Under `CC1CCC2(O)C3(OC4(O)C[C@]2(C)C2(O)[C@H](OC(=O)c5ccc[nH]5)C(O)(C(C)C)C4(C)C32O)[C@@H]1OC(=O)CCN=C(N)N` (some centres not stated) stands 1.1 nM.
On to `CC1CCC2(O)C3(OC4(O)C[C@]2(C)C2(O)[C@H](OC(=O)c5ccc[nH]5)C(O)(C(C)C)C4(C)C32O)[C@@H]1OC(=O)CCN=C(NC(=O)OCc1ccccc1)NC(=O)OCc1ccccc1` (some centres not stated), for which the IC50 was 43.6 nM.
In the case of `CC1CCC2(O)C3(OC4(O)C[C@]2(C)C2(O)[C@H](OC(=O)c5ccc[nH]5)C(O)(C(C)C)C4(C)C32O)[C@@H]1OC(=O)CCN` (some centres not stated), the IC50 was found to be 2.6 nM.
In the case of `CC1CCC2(O)C3(OC4(O)C[C@]2(C)C2(O)[C@H](OC(=O)c5ccc[nH]5)C(O)(C(C)C)C4(C)C32O)[C@@H]1OC(=O)CNC(=O)OCc1ccccc1` (some centres not stated), the IC50 was 4.8 nM.
Take `CC1CCC2(O)C3(OC4(O)C[C@]2(C)C2(O)[C@H](OC(=O)c5ccc[nH]5)C(O)(C(C)C)C4(C)C32O)[C@@H]1OC(=O)CNC(=NC(=O)OCc1ccccc1)NC(=O)OCc1ccccc1` (some centres not stated): the IC50 worked out at 136 nM.
Turning to `CNC(=O)CCC(=O)O[C@@H]1C(C)CCC2(O)C13OC1(O)C[C@]2(C)C2(O)[C@H](OC(=O)c4ccc[nH]4)C(O)(C(C)C)C1(C)C32O` (some centres not stated), the half-inhibitory concentration (IC50) is 49.4 nM.
Take `CC1CCC2(O)C3(OC4(O)C[C@]2(C)C2(O)[C@H](OC(=O)c5ccc[nH]5)C(O)(C(C)C)C4(C)C32O)[C@@H]1OC(=O)CCNC(=O)OCc1ccccc1` (some centres not stated): the half-inhibitory concentration (IC50) was 5.9 nM.
As for `CC1CCC2(O)C3(OC4(O)C[C@]2(C)C2(O)[C@H](OC(=O)c5ccc[nH]5)C(O)(C(C)C)C4(C)C32O)[C@@H]1OC(=O)CNC(=N)N` (some centres not stated), the IC50 turned out to be 1.8 nM.
In the case of `C=C1CCC2(O)C3(OC4(O)C[C@]2(C)C2(O)[C@H](OC(=O)c5ccc[nH]5)C(O)(C(C)C)C4(C)C32O)[C@@H]1O` (stereo in doubt) [ANHYDRORYANIDINE], the half-maximal inhibitory concentration (IC50) was over 10000 nM.
Take `C=C1CCC2(O)C3(OC4(O)C[C@]2(C)C2(O)[C@H](OC(=O)c5ccc[nH]5)C(O)(C(C)C)C4(C)C32O)[C@@H]1O` (stereo in doubt; 2) [ANHYDRORYANIDINE]: the concentration for half-maximal inhibition (IC50) amounted to 8.9 nM.
Under `CC1CCC2(O)C3(OC4(O)C[C@]2(C)C2(O)[C@H](OC(=O)c5ccc[nH]5)C(O)(C(C)C)C4(C)C32O)[C@@H]1OC(=O)CN` (some centres not stated) [GLYCYLRYANODINE] stands 1.8 nM.
